Tests used:
[1] = system: Bacillus cereus ATCC 10702 NCTC 8035; test: Antimicrobial activity, serial dilution technique in Mueller–Hinton Broth 2; type: cell-based; settings: Bacillus cereus, Bc, average of three ± SD, - means non-active
Outline: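 Antibacterial activity against Bacillus cereus ATCC 10702 NCTC 8035 was measured by serial dilution in Mueller–Hinton Broth 2 at a bacterial load of 3.0 × 10^5 cfu/mL. Cultures were kept at 37 °C and growth was read every 24 h for 5 days. The experiment was done three times, and MIC and bactericidal concentrations were determined.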

[2] = system: Enterococcus faecalis ATCC 2921; test: as above; type: cell-based; settings: Ef; average of three ± SD; - means non-active
Outline: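 Antibacterial activity against Enterococcus faecalis ATCC 2921 was assessed by serial dilution in Mueller–Hinton Broth 2 with a bacterial load of 3.0 × 10^5 cfu/mL. Cultures were incubated at 37 °C, with growth recorded every 24 h for 5 days, and the experiment was performed three times.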

[3] = system: Escherichia coli ATCC 25922; test: as above; type: cell-based; settings: Escherichia coli, ATCC25922, Ec; average of three ± SD; - means non-active; read-out: Minimum Inhibitory Concentration (MIC), Ec
Outline: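 Compounds were serially diluted in Mueller–Hinton Broth 2 and inoculated at 3.0 × 10^5 cfu/mL. Cultures were then incubated at 37 °C with growth recorded daily for 5 days. The MIC was taken as the minimum concentration inhibiting growth, from three experiments.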

[4] = system: Pseudomonas aeruginosa ATCC 9027; test: as above; type: cell-based; settings: Pseudomonas aeruginosa, ATCC9027, Pa, average of three ± SD, - means non-active
[5] = system: Staphylococcus aureus ATCC 6538P FDA 209P; test: as above; type: cell-based; settings: Staphylococcus aureus, Sa, average of three ± SD, - means non-active
Outline: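 Antimicrobial activity against Staphylococcus aureus ATCC 6538P FDA 209P was measured by serial dilution in Mueller–Hinton Broth 2 at a bacterial load of 3.0 × 10^5 cfu/mL. Cultures were incubated at 37 °C, growth was recorded every 24 h for 5 days, and the experiment was done three times.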

S. aureus 209 P = test: Bactericidal properties of coated plastic samples; type: cell-based, Staphylococcus aureus; settings: for CFU/cm^2, Nylon: Nylon plastic
Experimental: The plastic samples, which were 10 mm × 10 mm × 2 mm, were preliminary sterilized and placed into an ethanolic solution of 12a for 1 min. Then, the studied and control (without coating) samples were immersed in bacterial suspensions with a known concentration of bacteria (10^5–10^8 bacteria/mL) for 24 h, and the number of viable micro-organisms was then estimated.
The plastic samples, which were 10 mm × 10 mm × 2 mm plates, were sterilized in a medical autoclave, HG-50 (Hirayama, Japan), at 121 °C for 20 min. Then, each sample was immersed in an ethanolic solution of compound 12a at concentrations of 0.01 and 0.001% for 1 min and air dried. After treatment, the plastic samples were placed in 24-well plates with 1 sample/well. Then, 1 mL of S. aureus 209 P suspension (10^5 bacteria/mL) was added to each well. The plastic control samples were not treated with compound 12a. The culture of Staphylococcus aureus 209 P was grown for a day at 37 °C in Mueller–Hinton Broth 2. Active daily growing cultures were diluted in physiological saline (NaCl 9.0 g/L) to a concentration of 10^5 bacteria/mL and then distributed into 25-well plates containing 1 cm^2 of coating/well, with the exception of an uncoated control well. After a 24-h incubation period at 37 °C, dilution series were performed for each treatment, and 100 μL volumes of 3 dilutions were plated on sterile Mueller–Hinton agar. After 24 h, the number of colonies on each plate was counted to obtain the corresponding concentration of live bacteria.

P. aeruginosa = test: Zone-of-inhibition test of coated PC+ plastic sample; type: cell-based, Pseudomonas aeruginosa; settings: PC+ sample immersed 1 min in 1% solution of 12a in ethanol, 37 °C 24 h
Experimental: (§1) The inhibition-zone test is a quick and qualitative way to measure the ability of an antimicrobial agent to suppress microbial growth. The sensitivity of the method is quite high and even a small amount of residual biocide in a model system can be detected. […] In this experiment, we used cultures of the bacteria P. aeruginosa and S. aureus. First, the microbial suspension was spread on a sterile agar plate. Then, a plastic sample (PC+), which was preliminarily immersed for 1 min in a 1% solution of compound 12a in ethanol, was placed in the center of the Petri dish with agar. During the incubation period, the inoculum bacteria can only grow where is no antimicrobial agent. If the active agent is washed out of the sample into the environment (in this case, agar), bacterial growth in the area around the sample is suppressed. The width of this area is determined by the diffusion of the active compound in the vicinity. […] From the results obtained, it is clear that a relatively stable surface coating was achieved using a simple experimental procedure.
(§2) This sample was tested for possible release of the active compound. Tests were performed on a culture of Gram-negative bacteria P. aeruginosa and Gram-positive bacteria S. aureus. […] Then, Petri dishes were placed in an incubator at 37 °C for 24 h, and the presence of inhibition zones was evaluated.

S. aureus = test: as above; type: cell-based, Staphylococcus aureus; settings: PC+ sample immersed 1 min in 1% solution of 12a in ethanol, 37 °C 24 h
Experimental: as §1, §2

CCCCCCCCCCCC[P+](C(C)(C)C)(C(C)(C)C)C(C)(C)C [Compound 12a, tri-tert-butyl(n-dodecyl)phosphonium]
MBC ([1]; read-out: Minimum Bactericidal and Fungicidal Concentration (MBC, MFC), Bc): 62.5 ± 5.3 µg/mL
MIC ([1]; read-out: Minimum Inhibitory Concentration (MIC), Bc): 1.9 ± 0.01 µg/mL
Minimum Bactericidal and Fungicidal Concentration (MBC, MFC), Ef [2]: 1.9 ± 0.1 µg/mL
Minimum Inhibitory Concentration (MIC), Ef [2]: 0.9 ± 0.06 µg/mL
MIC [3]: 7.8 ± 0.6 µg/mL
MBC ([4]; read-out: Minimum Bactericidal and Fungicidal Concentration (MBC, MFC), Pa): 125 ± 11 µg/mL
MIC ([4]; read-out: Minimum Inhibitory Concentration (MIC), Pa): 62.5 ± 5.5 µg/mL
MBC ([5]; read-out: Minimum Bactericidal and Fungicidal Concentration (MBC, MFC), Sa): 0.5 ± 0.03 µg/mL
MIC ([5]; read-out: Minimum Inhibitory Concentration (MIC), Sa): 0.5 ± 0.03 µg/mL
bacterial growth on coated plastic (S. aureus 209 P; 12a at a concentration of 0.01%, ABS, PLA natural and PETG plastics): complete absence of bacterial growth
CFU/cm^2, ABS (S. aureus 209 P; ABS plastic, 12a 0.001%, 24 h incubation with 10^5 S. aureus 209 P): 2.5 × 10^3 CFU/cm^2
CFU/cm^2, Nylon (S. aureus 209 P; 12a 0.001%, 24 h incubation with 10^5 S. aureus 209 P): 3.2 × 10^4 CFU/cm^2
CFU/cm^2, Nylon (S. aureus 209 P; 12a 0.01%, 24 h incubation with 10^5 S. aureus 209 P): 2.0 × 10^2 CFU/cm^2
CFU/cm^2, PC+ (S. aureus 209 P; PC+ plastic, 12a 0.001%, 24 h incubation with 10^5 S. aureus 209 P): 1.2 × 10^4 CFU/cm^2
CFU/cm^2, PETG (S. aureus 209 P; PETG plastic, 12a 0.001%, 24 h incubation with 10^5 S. aureus 209 P): 1.8 × 10^3 CFU/cm^2
decrease of bacterial cell concentration compared to the control (S. aureus 209 P; PETG, 12a 0.001%): 27 times
CFU/cm^2, PLA Natural (S. aureus 209 P; PLA Natural plastic, 12a 0.001%, 24 h incubation with 10^5 S. aureus 209 P): 5.0 × 10^3 CFU/cm^2
CFU/cm^2, PLA+ (S. aureus 209 P; PLA+ plastic, 12a 0.001%, 24 h incubation with 10^5 S. aureus 209 P): 1.6 × 10^4 CFU/cm^2
zone of inhibition (P. aeruginosa): no zones of inhibition
zone of inhibition (S. aureus): no zones of inhibition
